Results as given in patent US20030215462A1, “Use of UGT inhibitors to increase bioavailability” (priority 2001, published 2003).
“And” between values parts separate entries of the source, which are not always exact repeats. Equal values may be shown once.

How the values were obtained:
[1] = test system: T1, UGT enzymes of human liver microsomes; experiment: Inhibition of 7-HFC glucuronidation in human liver microsomes; assay type: biochemical; conditions: for % of control metabolism (SD, n = 3), 7-HFC glucuronidation: 7-HFC 50 μM, human liver microsomes 100 μg/ml, 15 min
T1 construct: percentage of control metabolism, 7-HFC glucuronidation; percentage of control metabolism, 7-HFC glucuronidation

UGT1A9 = biological target: T2, UGT1A9 (Homo sapiens, UniProt O60656); experiment: in vitro
T2 sequence (O60656 26-530): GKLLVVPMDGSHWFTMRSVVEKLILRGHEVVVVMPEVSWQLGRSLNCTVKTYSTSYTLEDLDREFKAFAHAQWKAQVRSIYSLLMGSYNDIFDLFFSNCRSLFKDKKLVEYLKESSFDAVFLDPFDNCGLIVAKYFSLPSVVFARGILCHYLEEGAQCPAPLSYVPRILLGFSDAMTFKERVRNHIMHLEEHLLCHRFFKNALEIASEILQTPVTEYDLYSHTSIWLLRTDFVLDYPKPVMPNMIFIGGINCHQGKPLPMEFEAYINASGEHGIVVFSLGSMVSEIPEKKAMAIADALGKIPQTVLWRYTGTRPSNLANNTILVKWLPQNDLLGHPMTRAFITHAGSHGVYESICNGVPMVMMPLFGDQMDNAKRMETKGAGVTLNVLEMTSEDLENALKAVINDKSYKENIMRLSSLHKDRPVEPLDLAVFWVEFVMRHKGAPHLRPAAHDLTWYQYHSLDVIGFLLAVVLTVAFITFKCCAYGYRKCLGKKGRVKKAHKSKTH
Description: (§1) Compounds were eluted using a binary solvent gradient system. Solvent A was water brought to pH 8 with NH4OH. Solvent B was methanol. Solvent flow rate was 1 ml/min and the column temperature was maintained at 50° C. Detection was at 280 nm. […] The system was then returned to the initial conditions and equilibrated for 3 min.

UGT1A8 [2] = biological target: T3, UGT1A8 (Homo sapiens, UniProt Q9HAW9); experiment: in vitro; conditions: pH 7.5, % of control metabolism
T3 sequence (Q9HAW9 26-530): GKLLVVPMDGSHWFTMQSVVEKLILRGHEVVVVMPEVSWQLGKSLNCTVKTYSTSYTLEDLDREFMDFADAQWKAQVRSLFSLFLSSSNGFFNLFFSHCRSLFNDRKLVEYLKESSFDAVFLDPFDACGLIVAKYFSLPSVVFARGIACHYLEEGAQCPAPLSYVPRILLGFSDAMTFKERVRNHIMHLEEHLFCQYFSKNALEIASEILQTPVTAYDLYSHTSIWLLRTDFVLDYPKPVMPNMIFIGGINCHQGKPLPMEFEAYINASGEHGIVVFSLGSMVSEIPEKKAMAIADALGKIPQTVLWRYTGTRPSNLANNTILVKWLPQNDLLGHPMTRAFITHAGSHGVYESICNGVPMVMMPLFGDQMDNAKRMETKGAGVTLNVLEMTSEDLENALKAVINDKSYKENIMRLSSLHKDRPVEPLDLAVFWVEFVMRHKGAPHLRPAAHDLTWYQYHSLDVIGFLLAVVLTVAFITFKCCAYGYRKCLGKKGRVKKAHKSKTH
Description: as §1

[3] = test system: UGT enzymes of human liver microsomes; experiment: Inhibition of labetalol glucuronidation (LG1, LG2) in human liver microsomes; assay type: biochemical; conditions: labetalol 50 μM
UGT1A8 [4] = biological target: T3, UGT1A8; experiment: Inhibition of raloxifene glucuronidation by recombinant UGT1A8 Supersomes; conditions: for activity at 15 min, 10 µM: human, Supersomes with recombinant human UGT1A8, pH 7.5, probe raloxifene 50 μM, inhibitor 10 μM
Description: as §1

UGT1A10 = biological target: T4, UGT1A10 (Homo sapiens, UniProt Q9HAW8); experiment: Inhibition of raloxifene glucuronidation by recombinant UGT1A10 Bacculosomes; conditions: for activity at 15 min, 50 µM: Bacculosomes with recombinant human UGT1A10, pH 7.5, probe raloxifene 50 μM
T4 sequence (Q9HAW8 26-530): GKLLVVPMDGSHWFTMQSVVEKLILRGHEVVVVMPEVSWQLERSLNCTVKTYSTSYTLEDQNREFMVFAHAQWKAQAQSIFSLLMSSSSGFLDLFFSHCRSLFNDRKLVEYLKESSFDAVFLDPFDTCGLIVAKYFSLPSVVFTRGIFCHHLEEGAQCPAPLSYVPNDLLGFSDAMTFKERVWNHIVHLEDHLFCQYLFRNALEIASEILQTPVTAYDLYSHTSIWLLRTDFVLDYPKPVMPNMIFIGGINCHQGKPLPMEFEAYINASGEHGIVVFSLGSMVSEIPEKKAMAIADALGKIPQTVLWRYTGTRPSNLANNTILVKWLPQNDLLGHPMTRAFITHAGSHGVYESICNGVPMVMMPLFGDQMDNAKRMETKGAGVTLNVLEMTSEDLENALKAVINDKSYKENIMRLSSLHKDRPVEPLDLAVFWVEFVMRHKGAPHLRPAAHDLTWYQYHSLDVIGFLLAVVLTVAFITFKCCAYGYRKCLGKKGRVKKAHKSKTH
Description: as §1

[5] = test system: UGT enzymes of human liver microsomes; experiment: Inhibition of 2ME2 glucuronidation (MG1, MG2) in human liver microsomes; assay type: biochemical; conditions: liver 062101, 2ME2 50 μM
From the text: Compounds were eluted using a binary solvent gradient system where solvent A was dilute phosphoric acid (pH 3) and solvent B was 80:20 acetonitrile-methanol. […] Detection was at 280 nm.

[6] = pH 7.5, % of control metabolism, raloxifene G1
[7] = pH 7.5, % of control metabolism, raloxifene G2
[8] = pH 7.5, Inhibition of raloxifene glucuronidation, UGT1A9, first line per inhibitor (G1)
[9] = pH 7.5, Inhibition of raloxifene glucuronidation, UGT1A9, second line per inhibitor (G2)

SMILES	% of control metabolism (SD, n = 3), 7-HFC glucuronidation ([1]; inhibitor 200 μM)	% of control metabolism (SD, n = 3), 7-HFC glucuronidation ([1]; inhibitor 500 μM)	activity at 15 min, 50 µM (UGT1A9; [6]) [%]	activity at 15 min, 50 µM (UGT1A9; [7]) [%]	percentage of control metabolism, 7-HFC glucuronidation ([1]; inhibitor 100 μM)	% of control metabolism (SD, n = 3), 7-HFC glucuronidation ([1]; inhibitor 100 μM)	percentage of control metabolism, 7-HFC glucuronidation ([1]; inhibitor 200 μM)	percentage of control metabolism, 7-HFC glucuronidation ([1]; inhibitor 500 μM)	activity at 15 min, 50 µM (UGT1A8 [2]; raloxifene G1) [%]	activity at 15 min, 50 µM (UGT1A8 [2]; raloxifene G2) [%]	also measured
O=c1c(O)c(-c2ccc(O)c(O)c2)oc2cc(O)cc(O)c12 [Quercetin]	53 (1) %	52 (1), % and 62 (1) %	–	–	58 (1) %	58 (1) %	53 (1) %	52 (1) %	95	81	residual metabolism (percentage of control), labetalol LG1 ([3]; inhibitor 500 μM): 36 (3) %; residual metabolism (percentage of control), labetalol LG2 ([3]; inhibitor 500 μM): 23 (1) %; inhibition of raloxifene glucuronidation, in words (UGT1A8 [4]; UGT1A8): ineffective; inhibition of raloxifene glucuronidation, in words (UGT1A10; UGT1A10): only a modest effect
O=C(O[C@@H]1Cc2c(O)cc(O)cc2O[C@@H]1c1cc(O)c(O)c(O)c1)c1cc(O)c(O)c(O)c1 [Epigallocatechin gallate]	37 (2) %	5 (1) %	–	–	67 (1) %	67 (1) %	37 (2) %	5 (1) %	–	–	% of control metabolism, raloxifene G1 (UGT1A8 [4]; UGT1A8, inhibitor 50 μM): 69 (3) %; % of control metabolism, raloxifene G2 (UGT1A8 [4]; UGT1A8, inhibitor 50 μM): 54 (2) %; % of control metabolism, raloxifene G1 (UGT1A10; UGT1A10, inhibitor 25 μM): 68 (1) %; % of control metabolism, raloxifene G2 (UGT1A10; UGT1A10, inhibitor 25 μM): 73 (1) %; % of control metabolism, raloxifene G1 (UGT1A10; UGT1A10, inhibitor 50 μM): 37 (2) %; % of control metabolism, raloxifene G2 (UGT1A10; UGT1A10, inhibitor 50 μM): 37 (1) %
C=CCc1ccc(O)c(OC)c1 [Eugenol]	–	63 (1) %	32	29	–	–	–	–	107	103	activity at 15 min, 25 µM (UGT1A9; [6]): 56%; activity at 15 min, 25 µM (UGT1A9; [7]): 51%; activity at 15 min, 25 µM (UGT1A9; [8]): 56%; activity at 15 min, 50 µM (UGT1A9; [8]): 32%; activity at 15 min, 25 µM (UGT1A9; [9]): 51%; activity at 15 min, 50 µM (UGT1A9; [9]): 29%; inhibition of raloxifene glucuronidation, in words (UGT1A8 [4]; UGT1A8): ineffective; inhibition of raloxifene glucuronidation, in words (UGT1A10; UGT1A10): ineffective
CC/C(=C(/CC)c1ccc(O)cc1)c1ccc(O)cc1 [Diethylstilbestrol, reference compound]	1 (0) %	0.1 (0) %	–	–	11 (1) %	11 (1) %	1 (0) %	0.1 (0) %	–	–	percentage of control metabolism, 7-HFC glucuronidation ([1]; inhibitor 25 μM): 57 (1) %; % of control metabolism (SD, n = 3), 7-HFC glucuronidation ([1]; inhibitor 25 μM): 57 (1) %; percentage of control metabolism, 7-HFC glucuronidation ([1]; inhibitor 50 μM): 34 (2) %; % of control metabolism (SD, n = 3), 7-HFC glucuronidation ([1]; inhibitor 50 μM): 34 (2) %; residual metabolism (percentage of control), labetalol LG1 ([3]; inhibitor 10 μM): 66 (6) %; residual metabolism (percentage of control), labetalol LG2 ([3]; inhibitor 10 μM): 68 (7) %; residual metabolism (percentage of control), labetalol LG1 ([3]; inhibitor 25 μM): 39 (1) %; residual metabolism (percentage of control), labetalol LG2 ([3]; inhibitor 25 μM): 45 (3) %; residual metabolism (% of control), 2ME2 MG1 ([5]; inhibitor 1 μM): 88 (2) %; residual metabolism (% of control), 2ME2 MG2 ([5]; inhibitor 1 μM): 335 (5) %; residual metabolism (% of control), 2ME2 MG1 ([5]; inhibitor 10 μM): 72 (2) %; residual metabolism (% of control), 2ME2 MG2 ([5]; inhibitor 10 μM): 632 (4) %; activity at 15 min, 10 µM (UGT1A8 [4]; formation of glucuronide G1, % of control metabolism, raloxifene G1, UGT1A8): 156%; activity at 15 min, 10 µM (UGT1A8 [4]; formation of glucuronide G2, % of control metabolism, raloxifene G2, UGT1A8): 73%; activity at 15 min, 10 µM (UGT1A10; human, Bacculosomes with recombinant human UGT1A10, pH 7.5, % of control metabolism, raloxifene glucuronide (one value printed, G1 or G2 not stated), UGT1A10, inhibitor 10 μM): 70%; activity at 15 min, 25 µM (UGT1A10; human, Bacculosomes with recombinant human UGT1A10, pH 7.5, % of control metabolism, raloxifene glucuronide (one value printed, G1 or G2 not stated), UGT1A10, inhibitor 25 μM): 74%; activity at 15 min, 50 µM (UGT1A10; human, formation of glucuronide G1, % of control metabolism, raloxifene G1, UGT1A10, inhibitor 50 μM): 50%; activity at 15 min, 50 µM (UGT1A10; human, formation of glucuronide G2, % of control metabolism, raloxifene G2, UGT1A10, inhibitor 50 μM): 39%

More lines, main results first:

% of control metabolism (SD, n = 3), 7-HFC glucuronidation ([1]; inhibitor 200 μM)	% of control metabolism (SD, n = 3), 7-HFC glucuronidation ([1]; inhibitor 500 μM)	activity at 15 min, 50 µM (UGT1A9; [6]) [%]	activity at 15 min, 50 µM (UGT1A9; [7]) [%]	percentage of control metabolism, 7-HFC glucuronidation ([1]; inhibitor 100 μM)	% of control metabolism (SD, n = 3), 7-HFC glucuronidation ([1]; inhibitor 100 μM)	percentage of control metabolism, 7-HFC glucuronidation ([1]; inhibitor 200 μM)	percentage of control metabolism, 7-HFC glucuronidation ([1]; inhibitor 500 μM)	SMILES	activity at 15 min, 50 µM (UGT1A8 [2]; raloxifene G1) [%]	activity at 15 min, 50 µM (UGT1A8 [2]; raloxifene G2) [%]	also measured
71 (1) %	63 (0), % and 59 (1) %	48	51	–	–	–	–	CCCOC(=O)c1cc(O)c(O)c(O)c1 [Propyl gallate]	–	–	–
55 (3) %	10 (1) %	48	45	67 (1) %	67 (1) %	55 (3) %	10 (1) %	O=C(O[C@@H]1Cc2c(O)cc(O)cc2O[C@@H]1c1ccc(O)c(O)c1)c1cc(O)c(O)c(O)c1 [Epicatechin gallate]	71	53	–
–	95 (2) %	–	–	–	–	–	–	CC(CCc1ccccc1)NCC(O)c1ccc(O)c(C(N)=O)c1 (stereo not shown) [Labetalol, labetalol]	–	–	–
65 (3) %	37 (1), % and 38 (0) %	50	43	77 (2) %	77 (2) %	65 (3) %	37 (1) % and 38 (0) %	O=C(O)c1cc(-c2ccc(F)cc2F)ccc1O [Diflunisal, reference compound]	81	126	residual metabolism (percentage of control), labetalol LG1 ([3]; inhibitor 500 μM): 43 (5) %; residual metabolism (percentage of control), labetalol LG2 ([3]; inhibitor 500 μM): 35 (2) %
